Ends that are not written are not given here.
Key:
[1] = Pharmacodynamic study of VD in canines: 10-day subcutaneous infusion in high-rate paced heart failure model; format: in vivo, canine; conditions: dog, plasma; Day 10 of continuous vessel dilator infusion 100 ng/kg·min SC; Day 0 0.66+/−0.37; read-out: Pre-proANF (56-92) plasma concentration (radioimmunoassay)
Protocol: A pharmaceutical formulation of VD was prepared in a Tris buffer. 16.0 g glycerol, 6.05 g tris-(hydroxymethyl)-aminomethane (“Tris”), 2.50 g meta cresol were mixed in a 1.00 L volumetric flask. Approximately 900 mL nanopure water was added to the volumetric flask and the mixture was magnetically stirred to reach complete dissolution. 4 normal hydrochloric acid was used to adjust pH to 7.3 at 25° C. Then, the flask was filled to 1 L mark with nanopure water. The pH was rechecked and verified to be 7.3 at 25° C. The pH 7.3 Tris buffer was stored at 2-8° C. until use.
Lyophilized VD peptide (Bachem) was weighted into a glass vial and dissolved into a known volume of the Tris buffer to a concentration between 1 mg/mL and 10 mg/mL. The VD peptide was dissolved by gentle mixing and the solution was allowed to rest for between 20 and 30 minutes. The pH of the solution was checked and adjusted to 7.3 with 0.1 N sodium hydroxide. […]
Seven days prior to the beginning of HRP (Day −7), all dogs were instrumented for ventricular pacing with an IPG (implantable pulse generator) including an RA (right atrium) and RV (right ventricle) lead, and a DSI (Digital Sciences International) device in the femoral artery for arterial blood pressure monitoring. Glomerular filtration rate (GFR) was measured by iohexol clearance on the day before the beginning of HRP (Day −1). […]

[2] = format: physicochemical
From the text: Elliotts B® Solution is a sterile, non-pyrogenic, isotonic buffer that is approved by the United States Food and Drug Administration (FDA) for intrathecal administration of methotrexate sodium and cytarabine. Elliotts B® Solution will be used as a diluent for VD since it provides the appropriate isotonicity and pH attributes desired for SC administration. […] The detailed contents of Elliots B® Solution are provided in the Trial Dispensing Protocol. Storage conditions of the raw material, Elliotts B® Solution, as well as the reconstitution method will be supplied in a Pharmacy Guideline provided during the study.

**Q.** For “EVVPPQVLSEPNEEAGAALSPLPEVPPWTGEVSPAQR [VD, Vessel Dilator]”, which level at 240 h [1] is on record?
**A.** Its level at 240 h is 41.1 ng/mL.

**Q.** What about the “stability and compatibility of VD in Elliotts B Solution” value [2] of the same sequence?
**A.** Its value is “has been demonstrated”.

From patent US9616107B2, “Therapy for kidney disease and/or heart failure” (priority 2011, dated 2017)
